Among the data in ChEMBL document CHEMBL4680246, “Design, synthesis and biological evaluation of novel O-carbamoyl ferulamide derivatives as multi-target-directed ligands for the treatment of Alzheimer's disease” (Eur J Med Chem, 2020) are Ratio IC50, IC50 and inhibition values, retold here.

The species named for experiment [1] is Homo sapiens. Nature of the experiment: Selectivity index, ratio of IC50 for human erythrocytes Ache to IC50 for human serum BuChe.
In experiment [2] the target is T1, Amine oxidase [flavin-containing] A (Homo sapiens, UniProt P21397).
T1 sequence (P21397 whole entry): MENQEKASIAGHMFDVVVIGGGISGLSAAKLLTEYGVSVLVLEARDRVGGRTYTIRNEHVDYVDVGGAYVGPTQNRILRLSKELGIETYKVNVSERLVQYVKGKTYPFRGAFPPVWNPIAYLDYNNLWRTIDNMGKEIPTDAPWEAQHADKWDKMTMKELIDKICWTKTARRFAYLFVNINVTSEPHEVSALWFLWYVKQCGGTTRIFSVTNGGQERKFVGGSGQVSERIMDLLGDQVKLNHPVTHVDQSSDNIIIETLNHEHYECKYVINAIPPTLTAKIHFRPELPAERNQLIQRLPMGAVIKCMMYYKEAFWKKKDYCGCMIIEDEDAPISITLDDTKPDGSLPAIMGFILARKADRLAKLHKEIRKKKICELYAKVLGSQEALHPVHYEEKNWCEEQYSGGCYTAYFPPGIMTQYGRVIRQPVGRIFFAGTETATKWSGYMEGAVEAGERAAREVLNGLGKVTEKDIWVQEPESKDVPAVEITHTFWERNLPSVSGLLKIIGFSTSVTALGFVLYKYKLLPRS
Nature of the experiment: Inhibition of recombinant human MAO-A.

For experiment [3], the species on record is Homo sapiens. The experiment in a line: Selectivity index, ratio of IC50 for recombinant human MAO-A to IC50 for recombinant human MAO-B.
The target in experiment [4] is T2, Amine oxidase [flavin-containing] B (Homo sapiens, UniProt P27338).
T2 sequence (P27338 whole entry): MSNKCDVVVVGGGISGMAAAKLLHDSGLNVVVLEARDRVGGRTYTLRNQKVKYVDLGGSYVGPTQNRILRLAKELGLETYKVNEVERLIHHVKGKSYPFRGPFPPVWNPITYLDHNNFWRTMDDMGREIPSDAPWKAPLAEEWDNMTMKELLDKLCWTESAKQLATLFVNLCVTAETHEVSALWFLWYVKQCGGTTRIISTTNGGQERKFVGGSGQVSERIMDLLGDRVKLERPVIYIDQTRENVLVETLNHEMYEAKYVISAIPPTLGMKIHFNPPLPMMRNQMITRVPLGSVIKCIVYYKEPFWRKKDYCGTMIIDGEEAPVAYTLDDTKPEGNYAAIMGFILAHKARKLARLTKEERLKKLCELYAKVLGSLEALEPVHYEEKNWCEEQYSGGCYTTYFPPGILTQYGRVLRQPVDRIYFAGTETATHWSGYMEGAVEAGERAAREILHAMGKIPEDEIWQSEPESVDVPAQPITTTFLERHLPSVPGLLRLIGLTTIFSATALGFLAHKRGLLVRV
Nature of the experiment: Inhibition of recombinant human MAO-B.

The target of experiment [5] is Acetylcholinesterase (Electrophorus electricus, UniProt O42275). Nature of the experiment: Inhibition of Electrophorus electricus AChE using acetylcholine iodide as substrate incubated for 15 mins by Ellman's method. (Ellman's reagent forms a yellow product with free thiols.)
Experiment [6] deals with Acetylcholinesterase (Homo sapiens, UniProt P22303). Nature of the experiment: Inhibition of human erythrocytes AChE using acetylcholine iodide as substrate incubated for 15 mins by Ellman's method.
Experiment [7] has as its target Cholinesterase (Homo sapiens, UniProt P06276). Nature of the experiment: Inhibition of human serum BuChE using acetylcholine iodide as substrate incubated for 15 mins by Ellman's method.
Experiment [8] is described as follows: Selectivity index, ratio of IC50 for Electrophorus electricus AChE to IC50 for equine serum BuChE.
Experiment [9] addresses Cholinesterase (Equus caballus, UniProt P81908). Nature of the experiment: Inhibition of equine serum BuChE using BTC as substrate after 15 mins by Ellman's method.
Experiment [10] has as its target Amyloid-beta precursor protein (Homo sapiens) (UniProt P05067). The experiment in a line: Inhibition of self-induced Amyloid beta (1 to 42 residues) (unknown origin) aggregation at 25 uM measured after 24 hrs by thioflavin T-based fluorimetric assay relative to control.

Cholinesterase (Equus caballus, UniProt P81908), sequence (P81908 whole entry, the tested form may be a part): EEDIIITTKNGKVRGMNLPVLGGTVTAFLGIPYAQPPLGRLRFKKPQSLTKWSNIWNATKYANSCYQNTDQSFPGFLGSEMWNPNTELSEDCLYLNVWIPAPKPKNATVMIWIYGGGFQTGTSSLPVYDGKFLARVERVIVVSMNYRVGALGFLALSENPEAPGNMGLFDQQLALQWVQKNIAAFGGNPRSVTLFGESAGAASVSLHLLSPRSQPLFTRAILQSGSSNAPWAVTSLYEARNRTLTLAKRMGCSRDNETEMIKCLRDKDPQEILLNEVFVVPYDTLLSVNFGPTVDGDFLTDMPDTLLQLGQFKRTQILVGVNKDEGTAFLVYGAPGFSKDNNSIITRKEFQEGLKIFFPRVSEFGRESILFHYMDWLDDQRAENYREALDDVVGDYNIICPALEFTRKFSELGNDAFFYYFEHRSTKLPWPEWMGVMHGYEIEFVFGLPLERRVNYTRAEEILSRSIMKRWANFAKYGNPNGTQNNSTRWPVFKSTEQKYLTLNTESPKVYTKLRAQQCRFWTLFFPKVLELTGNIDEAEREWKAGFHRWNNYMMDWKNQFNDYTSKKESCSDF
Amyloid-beta precursor protein (Homo sapiens), sequence (P05067 whole entry, the tested form may be a part): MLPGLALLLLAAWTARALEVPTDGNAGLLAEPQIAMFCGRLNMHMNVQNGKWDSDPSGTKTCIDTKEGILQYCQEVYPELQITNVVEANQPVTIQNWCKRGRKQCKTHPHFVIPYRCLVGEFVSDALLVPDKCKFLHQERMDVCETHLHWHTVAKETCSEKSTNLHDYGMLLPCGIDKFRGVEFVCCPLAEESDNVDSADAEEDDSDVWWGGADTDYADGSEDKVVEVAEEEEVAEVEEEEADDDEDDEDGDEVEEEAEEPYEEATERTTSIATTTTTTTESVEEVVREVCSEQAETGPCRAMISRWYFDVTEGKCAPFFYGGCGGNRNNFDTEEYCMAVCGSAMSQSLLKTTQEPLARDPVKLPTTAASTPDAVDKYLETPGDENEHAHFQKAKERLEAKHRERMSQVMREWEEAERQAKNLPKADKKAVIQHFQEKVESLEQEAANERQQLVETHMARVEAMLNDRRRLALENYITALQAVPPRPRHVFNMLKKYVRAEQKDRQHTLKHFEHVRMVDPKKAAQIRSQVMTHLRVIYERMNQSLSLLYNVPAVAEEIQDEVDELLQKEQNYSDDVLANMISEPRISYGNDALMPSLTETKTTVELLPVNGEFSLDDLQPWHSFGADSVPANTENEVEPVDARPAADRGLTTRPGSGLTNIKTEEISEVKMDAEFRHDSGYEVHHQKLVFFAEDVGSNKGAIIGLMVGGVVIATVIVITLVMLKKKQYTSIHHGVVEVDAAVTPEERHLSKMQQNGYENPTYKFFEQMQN
Cholinesterase (Homo sapiens, UniProt P06276), sequence (P06276 whole entry): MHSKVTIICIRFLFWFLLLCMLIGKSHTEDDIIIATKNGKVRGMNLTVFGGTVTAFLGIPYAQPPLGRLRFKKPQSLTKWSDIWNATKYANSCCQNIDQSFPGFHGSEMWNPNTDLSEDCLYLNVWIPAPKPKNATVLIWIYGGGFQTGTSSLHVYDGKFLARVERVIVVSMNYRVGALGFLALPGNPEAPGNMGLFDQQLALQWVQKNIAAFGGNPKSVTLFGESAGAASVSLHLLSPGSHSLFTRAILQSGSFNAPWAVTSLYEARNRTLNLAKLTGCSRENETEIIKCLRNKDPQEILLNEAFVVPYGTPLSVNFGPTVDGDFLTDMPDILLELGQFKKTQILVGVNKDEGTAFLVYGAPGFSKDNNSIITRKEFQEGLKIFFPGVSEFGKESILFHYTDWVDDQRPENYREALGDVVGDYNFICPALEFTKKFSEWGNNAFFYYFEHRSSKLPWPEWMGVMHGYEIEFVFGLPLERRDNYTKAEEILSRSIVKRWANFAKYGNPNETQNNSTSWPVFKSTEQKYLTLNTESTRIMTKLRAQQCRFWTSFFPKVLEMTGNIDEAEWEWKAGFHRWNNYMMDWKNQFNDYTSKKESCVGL
Acetylcholinesterase (Electrophorus electricus, UniProt O42275), sequence (O42275 whole entry): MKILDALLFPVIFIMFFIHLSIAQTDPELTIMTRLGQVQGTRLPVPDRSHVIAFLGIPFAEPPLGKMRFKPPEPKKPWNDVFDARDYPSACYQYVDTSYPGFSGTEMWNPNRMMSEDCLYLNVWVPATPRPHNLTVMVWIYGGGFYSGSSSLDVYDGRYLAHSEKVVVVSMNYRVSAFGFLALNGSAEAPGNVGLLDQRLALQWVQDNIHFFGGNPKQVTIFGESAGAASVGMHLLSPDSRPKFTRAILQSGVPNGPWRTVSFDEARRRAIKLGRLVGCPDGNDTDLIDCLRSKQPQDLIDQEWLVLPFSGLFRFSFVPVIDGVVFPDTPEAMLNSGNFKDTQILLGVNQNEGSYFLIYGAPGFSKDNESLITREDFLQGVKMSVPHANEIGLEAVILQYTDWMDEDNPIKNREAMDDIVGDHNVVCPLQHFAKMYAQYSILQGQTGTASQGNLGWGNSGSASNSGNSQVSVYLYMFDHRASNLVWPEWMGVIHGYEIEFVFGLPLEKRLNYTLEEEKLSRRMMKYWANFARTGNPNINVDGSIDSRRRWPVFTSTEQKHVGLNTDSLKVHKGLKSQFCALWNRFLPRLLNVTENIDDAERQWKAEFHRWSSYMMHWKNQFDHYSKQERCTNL
Acetylcholinesterase (Homo sapiens, UniProt P22303), sequence (P22303 whole entry): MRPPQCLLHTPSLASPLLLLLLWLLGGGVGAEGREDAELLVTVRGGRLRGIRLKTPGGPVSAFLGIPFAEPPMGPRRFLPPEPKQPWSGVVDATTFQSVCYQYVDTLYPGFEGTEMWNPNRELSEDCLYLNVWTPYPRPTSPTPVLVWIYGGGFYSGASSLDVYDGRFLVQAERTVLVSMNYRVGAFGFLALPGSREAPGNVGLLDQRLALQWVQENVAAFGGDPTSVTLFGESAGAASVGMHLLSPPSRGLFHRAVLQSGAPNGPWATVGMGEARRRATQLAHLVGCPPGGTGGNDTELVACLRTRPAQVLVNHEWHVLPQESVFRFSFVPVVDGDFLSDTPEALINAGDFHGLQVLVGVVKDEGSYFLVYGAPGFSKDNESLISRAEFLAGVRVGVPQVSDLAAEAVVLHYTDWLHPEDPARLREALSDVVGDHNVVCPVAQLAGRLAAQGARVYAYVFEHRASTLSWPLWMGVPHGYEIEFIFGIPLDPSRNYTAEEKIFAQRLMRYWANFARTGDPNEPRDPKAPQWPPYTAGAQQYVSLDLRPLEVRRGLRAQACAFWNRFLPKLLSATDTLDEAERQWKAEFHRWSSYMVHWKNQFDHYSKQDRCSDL

As usually defined, the IC50 is the point on the concentration scale where inhibition reaches its midpoint. `CCN(CC)C(=O)/C=C/c1ccc(OC(=O)N(C)C)c(OC)c1`: the Ratio IC50 in the experiment filed under Homo sapiens [1] was 0.86; in the experiment filed under Homo sapiens [3], 0.97; in [8], 0.93. Besides, the half-maximal inhibitory concentration (IC50) in [2] stood at 30.9 µM; in [4], 31.8 µM; at Acetylcholinesterase [5], 17.8 µM; against Acetylcholinesterase [6], 13.1 µM; against Cholinesterase [7], 15.2 µM; on Cholinesterase [9], 19.2 µM.
In the case of `COc1cc(/C=C/C(=O)N2CCN(Cc3ccccc3)CC2)ccc1OC(=O)N(C)C`, the results for the Ratio IC50 (in the experiment listed under Homo sapiens [1]; in the experiment listed under Homo sapiens [3]; in [8]) were 1.7, 2.3 and 1.9, respectively. Moreover, the half-maximal inhibitory concentration (IC50) was determined as 39.1 µM in [2]; 16.7 µM in experiment [4]; 22.7 µM against Acetylcholinesterase [5]; 23.5 µM on Acetylcholinesterase [6]; 14.2 µM on Cholinesterase [7]; 12.1 µM against Cholinesterase [9].
Consider `CCN(C)C(=O)Oc1ccc(/C=C/C(=O)N2CCCCC2)cc1OC`, for which the Ratio IC50 in the experiment filed under Homo sapiens [1] was found to be 0.85; in the experiment listed under Homo sapiens [3], 1.8; in [8] it was 0.78. Moreover, the IC50 in experiment [2] was found to be 29.6 µM; in [4], 16.3 µM; against Acetylcholinesterase [5], 15.3 µM; against Acetylcholinesterase [6], 10.7 µM; on Cholinesterase [7], 12.6 µM; on Cholinesterase [9], 19.6 µM.
With `CCN(CC)C(=O)Oc1ccc(/C=C/C(=O)N2CCN(Cc3ccccc3)CC2)cc1OC`, the Ratio IC50 in the experiment listed under Homo sapiens [1] is 1.6; in the experiment listed under Homo sapiens [3], 0.8; in experiment [8] it was 2.2. Besides, the IC50 in experiment [2] turned out to be 19.7 µM; in [4] it was 23.2 µM; against Acetylcholinesterase [5], 19.2 µM; against Acetylcholinesterase [6] it was 16.8 µM; against Cholinesterase [7], 10.6 µM; at Cholinesterase [9], 8.7 µM.
Regarding `COc1cc(/C=C/C(=O)N2CCCCC2)ccc1OC(=O)N(C)C`, the Ratio IC50 is 0.69 in the experiment filed under Homo sapiens [1], 1 in the experiment filed under Homo sapiens [3] and 0.67 in [8]. For the same compound, the IC50 in experiment [2] amounted to 33.3 µM; in [4], 32.5 µM; against Acetylcholinesterase [5], 17.5 µM; at Acetylcholinesterase [6], 9.1 µM; at Cholinesterase [7] it was 13.1 µM; at Cholinesterase [9], 26.3 µM.
One may read the inhibition as the change of the read-out against control, counted positive when it falls. Take `COc1cc(/C=C/C(=O)N2CCC(Cc3ccccc3)CC2)ccc1OC(=O)N(C)C`: the Ratio IC50 is 2.2 in the experiment listed under Homo sapiens [1], 1.8 in the experiment listed under Homo sapiens [3] and 14.5 in experiment [8]. In addition, the IC50 in experiment [2] came out at 16.3 µM; in [4] it was 8.9 µM; on Acetylcholinesterase [5], 18.9 µM; at Acetylcholinesterase [6], 16.6 µM; against Cholinesterase [7], 7.6 µM; on Cholinesterase [9], 1.3 µM. The compound further returned an inhibition in [10] of 56.6%.
As to `COc1cc(/C=C/C(=O)N2CCc3ccccc3C2)ccc1OC(=O)N(c1ccccc1)c1ccccc1`, the Ratio IC50 in the experiment listed under Homo sapiens [1] turned out to be 1.2; in the experiment filed under Homo sapiens [3], 1.4. Further, the IC50 was determined as 16.9 µM in experiment [2]; 12.2 µM in [4]; 93.2 µM against Acetylcholinesterase [5]; 30.5 µM against Acetylcholinesterase [6]; 25.8 µM against Cholinesterase [7]; 23.9 µM against Cholinesterase [9].
As to `CCN(C)C(=O)Oc1ccc(/C=C/C(=O)N(CC)Cc2ccccc2)cc1OC`, the Ratio IC50 in the experiment filed under Homo sapiens [1] turned out to be 5.4; in the experiment filed under Homo sapiens [3] it was 1.5; in experiment [8], 13. Further, the IC50 in [2] was found to be 14.1 µM; in [4] it was 9.5 µM; against Acetylcholinesterase [5], 19.5 µM; against Acetylcholinesterase [6] it was 20.7 µM; against Cholinesterase [7] it was 3.8 µM; against Cholinesterase [9] it was 1.5 µM. This compound also returned an inhibition in experiment [10] of 50.7%.
Take `CCN(C)C(=O)Oc1ccc(/C=C/C(=O)N2CCc3ccccc3C2)cc1`: the Ratio IC50 in the experiment filed under Homo sapiens [1] was 1.8; in the experiment filed under Homo sapiens [3], 11.7; in experiment [8], 4.7. For the same compound, the IC50 in experiment [2] is 97.3 µM; in [4], 8.3 µM; at Acetylcholinesterase [5], 17.7 µM; against Acetylcholinesterase [6], 6.8 µM; against Cholinesterase [7], 3.7 µM; at Cholinesterase [9], 3.8 µM. In experiment [10], the inhibition was found to be 52.9%.
In the case of `COc1cc(/C=C/C(=O)O)ccc1O` [FERULATE], the IC50 against Acetylcholinesterase [5], against Acetylcholinesterase [6], against Cholinesterase [7] and against Cholinesterase [9] was greater than 100 µM each time.
Turning to `CCN(Cc1ccccc1)C(=O)/C=C/c1ccc(OC(=O)N(c2ccccc2)c2ccccc2)c(OC)c1`, the figures for the Ratio IC50 (in the experiment filed under Homo sapiens [1]; in the experiment listed under Homo sapiens [3]; in [8]) were 1.1, 1.5 and 0.77, respectively. Moreover, the IC50 in experiment [2] was found to be 24.6 µM; in experiment [4], 15.9 µM; at Acetylcholinesterase [5] it was 18.9 µM; against Acetylcholinesterase [6] it was 28.1 µM; on Cholinesterase [7] it was 25.3 µM; on Cholinesterase [9] it was 24.6 µM.
Take `COc1cc(/C=C/C(=O)N2CCc3ccccc3C2)ccc1OC(=O)N(C)OC`: the Ratio IC50 was found to be 0.76 in the experiment listed under Homo sapiens [1], 3.3 in the experiment listed under Homo sapiens [3] and 0.4 in experiment [8]. Further, the IC50 amounted to 22.2 µM in [2]; 6.8 µM in [4]; 11.8 µM at Acetylcholinesterase [5]; 12.3 µM against Acetylcholinesterase [6]; 16.2 µM against Cholinesterase [7]; 29.2 µM against Cholinesterase [9].
With `CCN(C)C(=O)Oc1ccc(/C=C/C(=O)N2CCC(Cc3ccccc3)CC2)cc1OC`, the results for the Ratio IC50 (in the experiment filed under Homo sapiens [1]; in the experiment listed under Homo sapiens [3]; in experiment [8]) were 2.7, 1.1 and 3.9, respectively. Besides, the concentration for half-maximal inhibition (IC50) in experiment [2] was determined as 7.9 µM; in experiment [4], 7.52 µM; on Acetylcholinesterase [5], 15.1 µM; at Acetylcholinesterase [6], 17.3 µM; on Cholinesterase [7], 6.5 µM; against Cholinesterase [9], 3.9 µM. This compound yielded an inhibition in experiment [10] of 53.7%.
As for `COc1cc(/C=C/C(=O)N2CCc3ccccc3C2)ccc1OC(=O)N(C)C`, the Ratio IC50 is 1.9 in the experiment listed under Homo sapiens [1], 3.6 in the experiment filed under Homo sapiens [3] and 7.2 in [8]. The IC50 stood at 35.7 µM in experiment [2]; 9.8 µM in [4]; 26.8 µM at Acetylcholinesterase [5]; 17.9 µM on Acetylcholinesterase [6]; 9.5 µM on Cholinesterase [7]; 3.7 µM against Cholinesterase [9].
For `CCN(C)C(=O)Oc1ccc(/C=C/C(=O)N2CCC(Cc3ccccc3)CC2)cc1`, the figures for the Ratio IC50 (in the experiment listed under Homo sapiens [1]; in the experiment listed under Homo sapiens [3]; in experiment [8]) were 4.8, 7.3 and 4.2, respectively. Moreover, the IC50 in [2] came out at 56.8 µM; in [4], 7.8 µM; on Acetylcholinesterase [5], 22.1 µM; at Acetylcholinesterase [6], 27.1 µM; against Cholinesterase [7] it was 5.6 µM; against Cholinesterase [9] it was 5.3 µM. In experiment [10], this compound displayed an inhibition of 48.1%.
Consider `CCN(C)C(=O)Oc1ccc(/C=C/C(=O)N2CCN(Cc3ccccc3)CC2)cc1`, for which the Ratio IC50 in the experiment listed under Homo sapiens [1] was 0.5; in the experiment listed under Homo sapiens [3] it was 0.5; in experiment [8] it was 1.3. Besides, the IC50 is 9.8 µM in [2]; 21.3 µM in [4]; 25.6 µM on Acetylcholinesterase [5]; 14.8 µM against Acetylcholinesterase [6]; 29.7 µM at Cholinesterase [7]; 20.3 µM at Cholinesterase [9].
On to `CCN(CC)C(=O)Oc1ccc(/C=C/C(=O)N2CCc3ccccc3C2)cc1OC`, for which the values for the Ratio IC50 (in the experiment filed under Homo sapiens [1]; in the experiment filed under Homo sapiens [3]; in experiment [8]) were 2, 1.2 and 6.8, respectively. In addition, the IC50 came out at 8 µM in [2]; 6.6 µM in [4]; 13.6 µM at Acetylcholinesterase [5]; 15.7 µM on Acetylcholinesterase [6]; 7.7 µM against Cholinesterase [7]; 2 µM on Cholinesterase [9].
Regarding `CCN(CC)C(=O)Oc1ccc(/C=C/C(=O)N2CCC(Cc3ccccc3)CC2)cc1OC`, the Ratio IC50 in the experiment listed under Homo sapiens [1] amounted to 3.9; in the experiment filed under Homo sapiens [3], 1.5; in experiment [8] it was 9.1. In addition, the IC50 in [2] was 7.8 µM; in experiment [4] it was 5.13 µM; on Acetylcholinesterase [5] it was 25.6 µM; against Acetylcholinesterase [6], 19.7 µM; against Cholinesterase [7], 5.1 µM; against Cholinesterase [9] it was 2.8 µM. In experiment [10], this compound had an inhibition of 49.7%.
